Laboratory results published in patent publication US20040171954A1, “Methods for determining whether to provide an inhibitor of sympathetic nervous system activity to a human being suffering from an autoimmune disease or fibryomyalgia” (CNS-Rheumatology, Inc., priority 2003, published 2004).
Like-named read-outs stand apart in the source and are kept apart here.

How the values were obtained:
[1] = tested on: patient one suffering from Ankylosing Spondylitis; experiment: Clinical course of a patient with ankylosing spondylitis (Example 7); assay type: in vivo, human; conditions: for control of the disease by prior therapy: before pramipexole
[2] = tested on: sympathetic nervous system activity in the heart; conditions: for sympathetic / tension / total power / vagus: one patient on pramipexole plus steroid therapy; for sympathetic (heart rate variability) / tension (heart rate variability) / total power (heart rate variability) / vagus (heart rate variability): one patient
Excerpt: This system is commercially available as The OmegaWave Sport Technology System, which is sold by OmegaWave Sport, Inc., 2732 Sunnyview Lane, Eugene, Oreg. 97405, USA. […] FIG. 4 illustrates one embodiment of components of the system and various electrode/sensor placements on the human body. System 10 is adapted to perform the following tests on a human body: Heart Rate Variability; Differential electrocardiogram (ECG); Omega Wave; Jump; and Stimulus Response. In the practice of the present invention, system 10 is used to perform the Heart Rate Variability test.
Referring to FIG. 7, a diagram that illustrates the steps of conducting a heart rate variability test in accordance with the present invention is shown. In step 110, a person receiving a test (PRT) positions him or herself for sensor attachment. In step 112, the sensors are attached. In step 114, a user selects the desired heart rate variability test from CD 50. In step 115, ID 40 is initialized for appropriate data sensing and data propagation by CD 50. In step 116, the PRT is instructed to attain or maintain a state of rest. In step 117, the machine executable steps of the selected test(s) is/are carried out by CD 50. […] A description of machine executable steps of the heart rate variability test selected in step 114 of FIG. 7 is now presented. Processing cardiac signals as discussed below permits quantitative and qualitative analysis of the functional state of cardiac activity.
In this representative heart rate variability test, four electrode sensors are preferably utilized and they are preferably placed one each on the wrists and ankles. One sensor electrode is a ground and the other three collect standard ECG data or the like. Alternative sensor placement may be utilized. The heart rate variability test is based on the registration of cardiac contractions of standard electrocardiogram (ECG) readings over the course of a fixed span of time. The test records the change of period length (in seconds) between each cardiac contraction which is the time between ECG spikes, which are designated with the letter R.
After initialization of ID 40, cardiac muscle electrical activity is recorded for a fixed time period, e.g., 128 seconds (step 152). A fixed number of consecutive heart beat intervals (RR intervals), e.g., 100, is selected and analyzed (step 154). The intervals are processed in this exemplary method using a fast Fourier transformation to achieve frequency spectrum analysis (step 156) and the density of interval frequencies is plotted in a frequency spectrum-gram (step 158). Frequency spectrum analysis is known in the art as described supra. The following frequency ranges are preferably plotted: high frequency=0.15 to 0.4 Hz; low frequency=0.04 to 0.15 Hz; and very low frequency=0.004 to 0.04 Hz.
In step 172, various indices for cardiovascular system performance are calculated based on frequency spectrum and other data and these include: Vagus (parasympathetic) Regulation (VR); Humoral Regulation (HR); Sympathetic Regulation (SR); Tension (Stress) Index; Share of aperiodic influences; Standard deviation; and Frequency of Cardiac Contractions (FCC). Calculation of these or related indices is known in the art. (See, e.g., Baevskiy, R. M., et al., Mathematical Analysis of Changes in Heart Rate Rhythm Under Stress, Moscow Science, 1984). These indices may be interpreted to generate textual conclusions about the functional state of cardiac activity.
The OmegaWave Sport Technology System, described herein and in published United States patent application serial number U.S. 2002/0045835 A1, provides three values that can be used singly, or in combination, to determine whether sympathetic nervous system activity predominates over parasympathetic nervous system activity in the heart: activity of the vagus (parasympathetic) regulation mechanisms; activity of the sympathetic regulation mechanisms; and Tension index.

[3] = tested on: patient two suffering from autoimmune hemolytic anemia with leukopenia; conditions: one patient
Excerpt: Patient two suffered from autoimmune hemolytic anemia. The patient had leukopenia (reduced white blood cell (WBC) count; 2,300 WBC). Steroids were recommended, but the patient refused. The patient's heart rate variability was monitored using system 10: vagus, 0.17; sympathetic, 52; tension, 199; total power, 201. […] Therefore, pramipexole was prescribed for administration at night to address sympathetic overactivity. The patient's symptoms improved, and their WBC count began to increase (2400). These changes correlated with a reduction in excessive sympathetic nervous system activity: vagus, 0.22; sympathetic, 45; tension, 147; total power, 294.
The patient discontinued pramipexole against medical advice. WBC decreased to 2100 as excessive sympathetic nervous system activity increased: vagus, 0.20; sympathetic, 70; tension, 236; total power, 280.

[4] = tested on: patient suffering from severe, previously untreatable, psoriatic arthropathy; experiment: Clinical course of a patient with severe psoriatic arthropathy (Example 3); assay type: in vivo, human; conditions: one patient
Excerpt: The following heart rate variability measurements were made in the patient using system 10: vagus, 0.16; sympathetic, 54; tension, 220; total power, 283.

[5] = after the patient discontinued pramipexole
[6] = pramipexole 2.0 mg per day at bedtime, with etanercept
[7] = pramipexole increased over 4 weeks to 4.5 mg per day at bedtime

CN(Cc1cnc2nc(N)nc(N)c2n1)c1ccc(C(=O)N[C@@H](CCC(=O)O)C(=O)O)cc1 [methotrexate]
control of the disease by prior therapy [1]: failed to control

CCCN[C@H]1CCc2nc(N)sc2C1 [pramipexole]
sympathetic ([2]; Dec. 11, 2001): 61 | tension ([2]; Dec. 11, 2001): 374 | total power ([2]; Dec. 11, 2001): 102 | vagus ([2]; Dec. 11, 2001): .10 | sympathetic ([2]; Feb. 5, 2002): 87 | tension ([2]; Feb. 5, 2002): 569 | total power ([2]; Feb. 5, 2002): 128 | vagus ([2]; Feb. 5, 2002): .09 | sympathetic ([2]; Nov. 14, 2001): 93 | tension ([2]; Nov. 14, 2001): 1278 | total power ([2]; Nov. 14, 2001): 24 | vagus ([2]; Nov. 14, 2001): .05 | sympathetic ([2]; Oct. 10, 2001): 93 | tension ([2]; Oct. 10, 2001): 1444 | total power ([2]; Oct. 10, 2001): 29 | vagus ([2]; Oct. 10, 2001): .05 | sympathetic (heart rate variability) [2, 5]: 70 | tension (heart rate variability) [2, 5]: 236 | total power (heart rate variability) [2, 5]: 280 | vagus (heart rate variability) [2, 5]: 0.20 | sympathetic (heart rate variability) ([2]; on pramipexole at night): 45 | tension (heart rate variability) ([2]; on pramipexole at night): 147 | total power (heart rate variability) ([2]; on pramipexole at night): 294 | vagus (heart rate variability) ([2]; on pramipexole at night): 0.22 | sympathetic (heart rate variability) [2, 6]: 54 | tension (heart rate variability) [2, 6]: 220 | total power (heart rate variability) [2, 6]: 283 | vagus (heart rate variability) [2, 6]: 0.16 | sympathetic (heart rate variability) [2, 7]: 43 | total power (heart rate variability) [2, 7]: 319 | vagus (heart rate variability) [2, 7]: 0.19 | tension (heart rate variability) ([2]; pramipexole increased over 4 weeks to 4.5 mg per day at bedtime, now normal): 145 | WBC [3, 5]: 2100 | WBC count ([3]; on pramipexole at night, 2,300 before treatment): 2400

C[C@]12C=CC(=O)C=C1CC[C@@H]1[C@@H]2C(=O)C[C@@]2(C)[C@H]1CC[C@]2(O)C(=O)CO [prednisone]
adverse outcome of excessive prednisone ([1]; prednisone 40 mg per day): avascular necrosis of both hips and hip replacement

etanercept
control of the disease by prior therapy [1]: failed to control | response of chronic joint flares and synovial thickening to treatment ([4]; fifteen years, before pramipexole): resistant | effectiveness of etanercept after pramipexole was added ([4]; over six weeks, pramipexole 2.0 mg per day at bedtime): became more effective
